The structures appear in SMILES notation.

The results in this text go back to paper PMC3736071, “Probing horseradish peroxidase catalyzed degradation of azo dye from tannery wastewater” (SpringerPlus, 2013).

The test system of this assay is T1, horseradish peroxidase (HRP).
T1 construct: gene PRXC1A
The assay can be described thus: dye decolorization at […] nm, Lineweaver-Burk plot. The class given is biochemical, Armoracia rusticana. The following applies: free HRP; H2O2 co-substrate (14 μL of 30% w/v per 3 mL, fixed); pH 6.6; 30°C; commercial dye; read-out: apparent Km.

The term Km denotes the concentration of substrate that gives half-maximal velocity. Take `O=S(=O)(O)c1cccc(N=Nc2ccc(N=Nc3ccc(Nc4ccccc4)c4c(S(=O)(=O)O)cccc34)c3ccccc23)c1` [C.I. Acid Blue 113]: the Michaelis-Menten constant (Km) amounted to 68 µM.
